# Measured values taken from patent US11053204B2, “Pyrimidinyloxy benzene derivatives as herbicides” (FMC Corporation, priority 2015, dated 2021).
# Experiments:
# Assay type in all cases: in vivo
# [1] = tested on: kochia (Kochia scoparia); assay: Test C postemergence, plant response rating
# In short: (§1)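 Preemergence: seeds sown in loam–sand blend or silt loam and sprayed with test chemicals in a non-phytotoxic surfactant-containing solvent. Postemergence: potted plants at 2–18 cm (1–4-leaf stage) sprayed with the same formulation. After 13–15 d in greenhouse, visual rating versus controls on 0 (no effect) to 100 (complete control) scale.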
# [2] = tested on: morningglory (Ipomoea coccinea); assay: Test C postemergence, plant response rating
# In short: as §1
# [3] = tested on: velvetleaf (Abutilon theophrasti); assay: Test C postemergence, plant response rating
# In short: as §1
# [4] = tested on: oilseed rape (Brassica napus); assay: Test C postemergence, plant response rating
# In short: as §1
# [5] = tested on: waterhemp (common waterhemp, Amaranthus rudis); assay: Test C postemergence, plant response rating; conditions: for Plant response rating, Waterhemp: scale 0 to 100; for Waterhemp plant response rating: scale 0 to 100 (0 no effect, 100 complete control)
# In short: as §1
# [6] = tested on: barnyardgrass (Echinochloa crus-galli); assay: Test C postemergence, plant response rating
# In short: as §1
# [7] = tested on: ragweed (common ragweed, Ambrosia elatior); assay: Test C postemergence, plant response rating
# In short: as §1
# [8] = tested on: wheat (Triticum aestivum); assay: Test A postemergence, visual injury rating; conditions: 0 is no effect, 100 is complete control; for Wheat plant response rating: 125 g ai/ha, 0 to 100 scale, approximately 10 days
# In short: (§2)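 Pre- and postemergence greenhouse screen. Soil: loam + sand. Spray carrier: solvent mixture, non-phytotoxic, with surfactant. Post timing at 1–2 leaves, height 2–10 cm. Readout: visual injury on a 0–100 scale roughly 10 days after application, untreated plants as reference.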
# [9] = tested on: kochia (Kochia scoparia); assay: Test A postemergence, visual injury rating; conditions: 0 is no effect, 100 is complete control; for Kochia plant response rating: 125 g ai/ha, 0 to 100 scale, approximately 10 days
# In short: as §2
# [10] = tested on: giant foxtail (Setaria faberii); assay: Test A postemergence, visual injury rating; conditions: 0 is no effect, 100 is complete control
# In short: as §2
# [11] = tested on: pigweed (Amaranthus retroflexus); assay: Test A postemergence, visual injury rating; conditions: 0 is no effect, 100 is complete control; for Pigweed plant response rating: 125 g ai/ha, 0 to 100 scale, approximately 10 days
# In short: as §2
# [12] = tested on: Italian ryegrass (Lolium multiflorum); assay: Test A postemergence, visual injury rating; conditions: 0 is no effect, 100 is complete control; for Ryegrass, Italian plant response rating: 125 g ai/ha, 0 to 100 scale, approximately 10 days
# In short: as §2
# [13] = tested on: corn (Zea mays); assay: Test A postemergence, visual injury rating; conditions: 0 is no effect, 100 is complete control
# In short: as §2
# [14] = tested on: ragweed (common ragweed, Ambrosia elatior); assay: Test A postemergence, visual injury rating; conditions: 0 is no effect, 100 is complete control; for Ragweed plant response rating: 125 g ai/ha, 0 to 100 scale, approximately 10 days
# In short: as §2
# [15] = 62 g ai/ha, scale 0 to 100 (0 no effect, 100 complete control)
# [16] = 125 g ai/ha, scale 0 to 100 (0 no effect, 100 complete control)
smiles,measurement,setting,value
N#Cc1cccc(Oc2ncc(Cl)cn2)c1CCCC(F)(F)F [Compound 72],"Plant response rating, Kochia","[1]; 16 g ai/ha, scale 0 to 100",100
same,"Plant response rating, Kochia","[1]; 31 g ai/ha, scale 0 to 100",100
same,Kochia plant response rating,[1]; [15],100
same,Kochia plant response rating,[1]; [16],100
same,"Plant response rating, Morningglory","[2]; 16 g ai/ha, scale 0 to 100",75
same,"Plant response rating, Morningglory","[2]; 31 g ai/ha, scale 0 to 100",65
same,Morningglory plant response rating,[2]; [15],40
same,Morningglory plant response rating,[2]; [16],70
same,"Plant response rating, Velvetleaf","[3]; 16 g ai/ha, scale 0 to 100",40
same,"Plant response rating, Velvetleaf","[3]; 31 g ai/ha, scale 0 to 100",50
same,Velvetleaf plant response rating,[3]; [15],40
same,Velvetleaf plant response rating,[3]; [16],70
same,"Plant response rating, Oilseed Rape","[4]; 16 g ai/ha, scale 0 to 100",50
same,"Plant response rating, Oilseed Rape","[4]; 31 g ai/ha, scale 0 to 100",60
same,Oilseed Rape plant response rating,[4]; [15],0
same,Oilseed Rape plant response rating,[4]; [16],65
same,"Plant response rating, Waterhemp",[5]; 16 g ai/ha,85
same,"Plant response rating, Waterhemp",[5]; 31 g ai/ha,80
same,Waterhemp plant response rating,[5]; 62 g ai/ha,90
same,Waterhemp plant response rating,[5]; 125 g ai/ha,90
same,"Plant response rating, Barnyardgrass","[6]; 16 g ai/ha, scale 0 to 100",5
same,"Plant response rating, Barnyardgrass","[6]; 31 g ai/ha, scale 0 to 100",5
same,Barnyardgrass plant response rating,[6]; [15],10
same,Barnyardgrass plant response rating,[6]; [16],10
same,"Plant response rating, Ragweed","[7]; 16 g ai/ha, scale 0 to 100",35
same,"Plant response rating, Ragweed","[7]; 31 g ai/ha, scale 0 to 100",50
same,Ragweed plant response rating,[7]; [15],40
same,Ragweed plant response rating,[7]; [16],75
same,Wheat plant response rating,[8],10
same,Wheat plant response rating (0 to 100 scale),[8]; 500 g ai/ha,40
same,Kochia plant response rating,[9],100
same,Kochia plant response rating (0 to 100 scale),[9]; 500 g ai/ha,100
same,"Foxtail, Giant plant response rating (0 to 100 scale)",[10]; 125 g ai/ha,70
same,"Foxtail, Giant plant response rating (0 to 100 scale)",[10]; 500 g ai/ha,100
same,Pigweed plant response rating,[11],100
same,Pigweed plant response rating (0 to 100 scale),[11]; 500 g ai/ha,100
same,"Ryegrass, Italian plant response rating",[12],10
same,"Ryegrass, Italian plant response rating (0 to 100 scale)",[12]; 500 g ai/ha,40
same,Corn plant response rating (0 to 100 scale),[13]; 125 g ai/ha,50
same,Corn plant response rating (0 to 100 scale),[13]; 500 g ai/ha,60
same,Ragweed plant response rating,[14],10
same,Ragweed plant response rating (0 to 100 scale),[14]; 500 g ai/ha,30
"N#Cc1cccc(Oc2ncc(Cl)cn2)c1CCCCC(F)(F)F [Compound 73, 3-[(5-chloro-2-pyrimidinyl)oxy]-2-(5,5,5-trifluoropentyl)benzonitrile]",pest or weed control at 16 g/ha,"[1]; Bassia scoparia, post-emergence, 16 g ai/ha, scale 0 to 100",98%
same,pest or weed control at 31 g/ha,"[1]; Bassia scoparia, post-emergence, 31 g ai/ha, scale 0 to 100",100%
same,pest or weed control at 62 g/ha,"[1]; Bassia scoparia, post-emergence, 62 g ai/ha, scale 0 to 100 (0 no effect, 100 complete control)",100%
same,pest or weed control at 125 g/ha,"[1]; Bassia scoparia, post-emergence, 125 g ai/ha, scale 0 to 100 (0 no effect, 100 complete control)",100%
same,pest or weed control at 16 g/ha,"[2]; Ipomoea, post-emergence, 16 g ai/ha, scale 0 to 100",70%
same,pest or weed control at 31 g/ha,"[2]; Ipomoea, post-emergence, 31 g ai/ha, scale 0 to 100",75%
same,pest or weed control at 62 g/ha,"[2]; Ipomoea, post-emergence, 62 g ai/ha, scale 0 to 100 (0 no effect, 100 complete control)",85%
same,pest or weed control at 125 g/ha,"[2]; Ipomoea, post-emergence, 125 g ai/ha, scale 0 to 100 (0 no effect, 100 complete control)",75%
same,pest or weed control at 16 g/ha,"[3]; Abutilon theophrasti, post-emergence, 16 g ai/ha, scale 0 to 100",40%
same,pest or weed control at 31 g/ha,"[3]; Abutilon theophrasti, post-emergence, 31 g ai/ha, scale 0 to 100",60%
same,pest or weed control at 62 g/ha,"[3]; Abutilon theophrasti, post-emergence, 62 g ai/ha, scale 0 to 100 (0 no effect, 100 complete control), read-out: Velvetleaf plant response rating",70%
same,pest or weed control at 125 g/ha,"[3]; Abutilon theophrasti, post-emergence, 125 g ai/ha, scale 0 to 100 (0 no effect, 100 complete control)",75%
same,plant injury at 16 g/ha,"[4]; Brassica napus, post-emergence, 16 g ai/ha, scale 0 to 100",5%
same,plant injury at 31 g/ha,"[4]; Brassica napus, post-emergence, 31 g ai/ha, scale 0 to 100",80%
same,plant injury at 62 g/ha,"[4]; Brassica napus, post-emergence, 62 g ai/ha, scale 0 to 100 (0 no effect, 100 complete control)",98%
same,plant injury at 125 g/ha,"[4]; Brassica napus, post-emergence, 125 g ai/ha, scale 0 to 100 (0 no effect, 100 complete control)",50%
same,"Plant response rating, Waterhemp",[5]; 16 g ai/ha,85
same,"Plant response rating, Waterhemp",[5]; 31 g ai/ha,98
same,Waterhemp plant response rating,[5]; 62 g ai/ha,100
same,Waterhemp plant response rating,[5]; 125 g ai/ha,100
same,pest or weed control at 16 g/ha,"[6]; Echinochloa crus-galli, post-emergence, 16 g ai/ha, scale 0 to 100",10%
same,pest or weed control at 31 g/ha,"[6]; Echinochloa crus-galli, post-emergence, 31 g ai/ha, scale 0 to 100",15%
same,pest or weed control at 62 g/ha,"[6]; Echinochloa crus-galli, post-emergence, 62 g ai/ha, scale 0 to 100 (0 no effect, 100 complete control)",20%
same,pest or weed control at 125 g/ha,"[6]; Echinochloa crus-galli, post-emergence, 125 g ai/ha, scale 0 to 100 (0 no effect, 100 complete control)",30%
same,pest or weed control at 16 g/ha,"[7]; Ambrosia artemisiifolia, post-emergence, 16 g ai/ha, scale 0 to 100",50%
same,pest or weed control at 31 g/ha,"[7]; Ambrosia artemisiifolia, post-emergence, 31 g ai/ha, scale 0 to 100",55%
same,pest or weed control at 62 g/ha,"[7]; Ambrosia artemisiifolia, post-emergence, 62 g ai/ha, scale 0 to 100 (0 no effect, 100 complete control)",60%
same,pest or weed control at 125 g/ha,"[7]; Ambrosia artemisiifolia, post-emergence, 125 g ai/ha, scale 0 to 100 (0 no effect, 100 complete control)",65%
same,Wheat plant response rating,[8],20
same,plant injury at 500 g/ha,"[8]; Triticum aestivum, post-emergence, 240 h, 500 g ai/ha, read-out: Wheat plant response rating (0 to 100 scale)",90%
same,Kochia plant response rating,[9],100
same,pest or weed control at 500 g/ha,"[9]; Bassia scoparia, post-emergence, 240 h, 500 g ai/ha, read-out: Kochia plant response rating (0 to 100 scale)",100%
same,pest or weed control at 125 g/ha,"[10]; Setaria faberi, post-emergence, 240 h, 125 g ai/ha, read-out: Foxtail, Giant plant response rating (0 to 100 scale)",100%
same,pest or weed control at 500 g/ha,"[10]; Setaria faberi, post-emergence, 240 h, 500 g ai/ha, read-out: Foxtail, Giant plant response rating (0 to 100 scale)",100%
same,Pigweed plant response rating,[11],100
same,pest or weed control at 500 g/ha,"[11]; Amaranthus retroflexus, post-emergence, 240 h, 500 g ai/ha, read-out: Pigweed plant response rating (0 to 100 scale)",100%
same,"Ryegrass, Italian plant response rating",[12],80
same,pest or weed control at 500 g/ha,"[12]; Lolium multiflorum, post-emergence, 240 h, 500 g ai/ha, read-out: Ryegrass, Italian plant response rating (0 to 100 scale)",100%
same,plant injury at 125 g/ha,"[13]; Zea mays, post-emergence, 240 h, 125 g ai/ha, read-out: Corn plant response rating (0 to 100 scale)",30%
same,plant injury at 500 g/ha,"[13]; Zea mays, post-emergence, 240 h, 500 g ai/ha, read-out: Corn plant response rating (0 to 100 scale)",60%
same,Ragweed plant response rating,[14],20
same,pest or weed control at 500 g/ha,"[14]; Ambrosia artemisiifolia, post-emergence, 240 h, 500 g ai/ha, read-out: Ragweed plant response rating (0 to 100 scale)",30%
